{"source": "patent US8492362B1", "about": "“5-(E)-Bromovinyl uracil analogues and related pyrimidine nucleosides as anti-varicella zoster virus agents and methods of use” (priority 2011, dated 2013)", "key": {"[1]": {"conditions": "herpes zoster patients, 125 mg/day; cited from earlier work"}, "VZV-BAC-Luc [2]": {"system": "VZV-BAC-Luc", "conditions": "36 mg/kg/day subcutaneously from osmotic pumps; cited from earlier work"}, "VZV-BAC-Luc [3]": {"system": "VZV-BAC-Luc", "format": "cell-based, Varicella-zoster virus", "conditions": "HFF at 48 hpi, read-out: EC50 in HFF, prodrug study"}, "VZV-BAC-Luc [4]": {"system": "VZV-BAC-Luc", "experiment": "VZV-BAC-Luc dose-response in human skin organ culture (SOC)", "conditions": "read-out: EC50 in skin organ culture (SOC), skin explants, Day 6 (6 dpi)"}, "[5]": {"system": "human foreskin fibroblasts (HFFs)", "experiment": "Neutral red dye uptake cytotoxicity assay in HFFs", "format": "cell-based", "conditions": "35 nM", "method": "The neutral red (NR) cytotoxicity assay was performed as described previously (Rowe et al.) and is based on the method of (Babich et al., 2002).\nTo determine the toxicity of L-BHDU in culture, a neutral red dye uptake assay was performed. The amount of dye absorbed is directly proportional to cell number and membrane integrity (Repetto et al., 2008). Primary human foreskin fibroblasts (HFFs) were treated with either 35 nM staurosporine to induce apoptosis, DMSO diluent alone, or 0.1 to 200 μM L-BHDU, refreshed daily. The uptake of neutral red dye was evaluated at 0, 24, 48, and 72 h post treatment. Absorbance values from 6 replicates at each dose were averaged and plotted against treatment time (FIG. 1A). […] In the cultures treated with 200 μM L-BHDU or DMSO at an equivalent diluent concentration, cell viability declined between 48-72 h. […] This substantiates previous reports that L-BHDU caused no cell growth arrest up to 200 μM in HEL 299 cells (human embryonic lung) (Li et al., 2000)."}, "VZV-BAC-Luc [6]": {"system": "VZV-BAC-Luc", "format": "in vivo, Varicella-zoster virus", "conditions": "3 mg/mL in drinking water"}, "[7]": {"conditions": "3 mg/mL in drinking water"}, "VZV": {"system": "VZV", "conditions": "Oliver et al., 2008; cited from earlier work"}}, "note": "Like-named read-outs stand apart in the source and are kept apart here.", "data": [{"smiles": "O=c1[nH]c(=O)n([C@H]2C[C@H](O)[C@@H](CO)O2)cc1/C=C/Br", "note": "[brivudin, (E)-5-(2-bromovinyl)-2′-deoxyuridine]", "values": [{"measurement": "Cmax (plasma)", "setting": "[1]", "result": 1700, "unit": "ng/mL"}]}, {"smiles": "O=C(O)CP(=O)(O)O", "note": "[phosphonoacetic acid (PAA), phosphonoacetic acid]", "values": [{"measurement": "effect on VZV growth in SCID-Hu model (Rowe et al.)", "setting": "VZV-BAC-Luc [2]", "result": "significantly reduced VZV growth"}]}, {"smiles": "CC(C)C(N)C(=O)OCC1OCC(n2cc(C=CBr)c(=O)[nH]c2=O)O1", "note": "(stereo not shown) [valyl derivative]", "values": [{"measurement": "EC50", "setting": "VZV-BAC-Luc [3]", "result": 38, "unit": "nM"}, {"measurement": "EC50", "setting": "VZV-BAC-Luc [4]", "result": 50, "unit": "nM"}]}, {"smiles": "CN[C@@H]1C[C@H]2O[C@@](C)([C@@H]1OC)n1c3ccccc3c3c4c(c5c6ccccc6n2c5c31)C(=O)NC4", "note": "[staurosporine, reference compound]", "values": [{"measurement": "cell viability, positive control for cell death", "setting": "[5]", "result": "no viable cells were detected"}]}, {"smiles": "CC(C)[C@H](N)C(=O)OCCOCn1cnc2c(=O)[nH]c(N)nc21", "note": "[valaciclovir, reference compound]", "values": [{"measurement": "antiviral effect in SCID-Hu mice", "setting": "VZV-BAC-Luc [6]", "result": "no antiviral effect"}, {"measurement": "average VZV growth rate", "setting": "VZV-BAC-Luc [6]; n=5", "result": "0.62±0.05", "unit": "log10 photons/s/day"}, {"measurement": "antiviral effect in SCID-Hu mice", "setting": "VZV-BAC-Luc [6]; listed as VACV", "result": "not effective"}, {"measurement": "loss of body weight", "setting": "[7]", "result": "> 20", "unit": "%"}, {"measurement": "effect on VZV replication in SCID-Hu mice", "setting": "VZV", "result": "little to no effect"}]}]}
